Results published in patent publication US20210106566A1, “PHARMACEUTICAL COMPOSITION FOR TREATING AND/OR PREVENTING PERIPHERAL NEUROPATHY OR SPINAL CORD INJURY” (NATIONAL UNIVERSITY CORPORATION NAGOYA UNIVERSITY, priority 2015, published 2021).

Key:
primary motor neurons [1] = assay: Scratch assay of neurite regeneration; format: cell-based, mouse; settings: 0, 1, 10, or 20 μmol/L, 48 hours after scratch
Description: Primary cultured motor neurons were seeded in a Nun Lab-Tek Chamber Slide (Thermo Scientific) coated with poly-L-lysine at 8.0×10^4 cells/cm^2×0.7 cm^2/well and then cultured in Sumilon neuron culture medium for 48 hours. Neurites of primary motor neurons were linearly scratched off with a 200 μL sterile pipette tip. The cells were immediately rinsed with PBS and cultured in Sumilon neuron culture medium containing 0, 1, 10, or 20 μmol/L zonisamide for 48 hours. The cells were fixed in 4% paraformaldehyde and immunostained with neuron-specific β-III tubulin monoclonal antibody (1:1000, MAB1195, R&D systems) and Alexa Fluor 488-conjugated goat anti-mouse secondary antibody (Life Technologies). Images of the scratched areas were acquired on a microscope (Olympus LX71). The neurite lengths of primary motor neurons in the scratched areas were automatically measured with MetaMorph software (Universal Imaging).

primary motor neurons [2] = assay: Time-lapse imaging of axonal growth; format: cell-based, mouse
Description: Primary cultured motor neurons were seeded in a 96-well plate at 6.0×10^3 cells/well in Sumilon neuron culture medium to induce neurite outgrowth. Phase-contrast images were taken every 8 hours for 3 days on IncuCyte ZOOM Live Cell Imaging System (Essen Bioscience). The neurite length was automatically analyzed with NeuroTrack software (IncuCyte).

primary motor neurons [3] = assay: MTS assay of cell survival under oxidative stress (hydrogen peroxide); format: cell-based, mouse; settings: zonisamide 1 hour before 100 μmol/L hydrogen peroxide for 24 hours; dose-dependent
Description: Cell survival rate was assessed by MTS assay (CellTiter 96 Aqueous One Solution Cell Proliferation Assay, Promega), which measured the activity of mitochondrial reductase. Primary cultured motor neurons were cultured in Sumilon neuron culture medium for 24 hours, and the medium was then exchanged to DMEM/F12 supplemented with 0.5% FBS and cultured for 24 hours. Zonisamide was added at various concentrations for 1 hour and 100 μmol/L hydrogen peroxide was then added for 24 hours. The cells were incubated with MTS reagent for 2 hours. MTS signal was quantified on a microplate reader (PowerScan HT, DS PharmaBiomedical). The group of cells treated without hydrogen peroxide was used as a control for evaluating MTS signal.

Erk1/2 = assay: Western blot of Erk1/2 phosphorylation in primary motor neurons; format: cell-based, mouse; settings: primary motor neurons, 0, 10, or 20 μmol/L, days 2 and 3
Description: Zonisamide (0, 10, or 20 μmol/L) was added to primary motor neurons 4 hours after the beginning of culture. The cells were rinsed with a buffer (50 mmol/L HEPES pH 7.0, 150 mmol/L NaCl, 1% glycerol, 1% TritonX-100, 1.5 mmol/L MgCl2, 1 mmol/L EGTA, 100 mmol/L NaF, 10 mmol/L sodium pyrophosphate, […], 1 mmol/L PMSF, and 1 mmol/L sodium orthovanadate (V)) at days 2 and 3. Total protein was dissolved in 1× Laemmli buffer, separated on a 10% SDS polyacrylamide gel, and transferred to a polyvinylidene fluoride membrane (Immobilon-P, Millipore). The membrane was washed with Tris-buffered physiological saline with 0.05% Tween 20 (TBS-T) and blocked with TBS-T containing 3% skim milk at room temperature for 1 hour. The membrane was incubated with any of anti-Erk1/2 (#4696, Cell Signaling), anti-phosphorylated Erk1/2 (#4370, Cell Signaling), or anti-phosphorylated JNK1/2/3 (#4668, Cell Signaling) antibody (diluted at 1:1000) at 4° C. overnight. The membrane was washed with TBS-T for 10 minutes three times and incubated with […] secondary antibody conjugated to horseradish peroxidase (HRP, GE Healthcare, 1:6000) at room temperature for 1 hour. The blot was detected with Amersham ECL Western blotting detection reagent (GE Healthcare) and quantified with ImageJ program (http://imagej.nih.gov/ij/index.html).

JNK1/2/3 = JNK1/2/3 phosphorylation in NSC34 cells; format: cell-based, mouse
[4] = test system: mouse sciatic nerve autologous transplantation model; assay: Mouse sciatic nerve autologous transplantation model: tibialis anterior muscle cross sections; format: in vivo; settings: 30 mg/kg/day, 8 weeks after surgery
From the text: Adult male C57BL/6J mice (8 weeks old; 19.5-22.0 g) were purchased from Charles River. The mice were anesthetized with isoflurane and underwent gluteal muscle incision under a sterile condition to expose the sciatic nerve in the left leg. The sciatic nerve was cut at the following two sites (1) and (2): (1) the site 3 mm distal to the first bifurcation of biceps femoris (hereinafter referred to as proximal transection site) (2) the site 3 mm distal to the proximal transection site (hereinafter referred to as distal transection site) The excised nerve segment with a length of 3 mm was confirmed to be completely cut at the two sites. The perineurium was sutured with nylon thread (10-0 black) at the proximal transection site and the distal transection site under a microscope. The remaining thread was used as a marker for finding the nerve transection site in the sacrifice of the mice. In order to reduce DMSO toxicity, a solution of 60 mg/mL zonisamide in 100% DMSO was prepared and the solution was diluted in olive oil to give a solution of 3 mg/mL zonisamide in 5% DMSO. […] Myelin sheath formation in the sciatic nerve was analyzed in six mice in each group. […] The number and area of myelinated axons in the sciatic nerve were manually measured using ImageJ software in a blinded fashion. […]

With `NS(=O)(=O)Cc1noc2ccccc12` [Zonisamide, 3-sulfamoylmethyl-1,2-benzisoxazole] the “neurite length in the scratch assay” value (primary motor neurons [1]) was “dose-dependent increase”, the “neurite outgrowth effect, time-lapse imaging” value (primary motor neurons [2]; forty hours after zonisamide administration, FIG. 3) was “neurite outgrowth effect was observed” and the “neurite outgrowth effect, 10 μmol/L versus 1 μmol/L” value (primary motor neurons [2]; throughout the observation period (3 days)) was “higher in the 10 μmol/L zonisamide administration group than in the 1 μmol/L zonisamide administration group”. For the same compound, the “number of living cells (MTS signal)” value (primary motor neurons [3]) was “significantly increased”, the Erk1/2 phosphorylation (Erk1/2) was “suppress” and the “phosphorylation level of JNK1/2/3” value (JNK1/2/3) was “slightly increased”. The “denervation atrophy of tibialis anterior muscle (cross-sectional area of muscle fibers)” value [4] was “promoted recovery from denervation atrophy”.
